Measured values as given in patent US9994594B2, “Inhibitors of arginase and their therapeutic applications” (MARS, INCORPORATED, priority 2010, dated 2018).
Counter-ions that a name gives are not always drawn. Like-named read-outs stand apart in the source and are kept apart here.

Assays:
human arginase I (ARG I) = target: T1, human arginase I (ARG I) (Homo sapiens, UniProt P05089); assay: Inhibition of arginase I, spectrophotometric urea assay at 530 nm; type: biochemical; conditions: read-out: Potency (ARG I)
T1 sequence (P05089 1-322): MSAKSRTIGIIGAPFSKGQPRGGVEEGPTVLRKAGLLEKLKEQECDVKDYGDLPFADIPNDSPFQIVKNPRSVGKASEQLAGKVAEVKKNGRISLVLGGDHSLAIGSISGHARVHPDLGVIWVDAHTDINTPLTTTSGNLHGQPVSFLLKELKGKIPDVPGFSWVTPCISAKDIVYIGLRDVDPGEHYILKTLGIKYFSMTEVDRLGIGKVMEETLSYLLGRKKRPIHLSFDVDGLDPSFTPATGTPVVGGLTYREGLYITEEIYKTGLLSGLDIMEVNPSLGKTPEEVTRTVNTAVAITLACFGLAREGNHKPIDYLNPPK
Outline: (§1)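 IC50 was derived by regression of OD530 normalized to uninhibited-enzyme controls against log concentration. Urea from 60-min, 37 °C turnover of L-arginine with manganese sulfate was detected after acid o-phthaldialdehyde/primaquine quench and 10 min colour development. Arginase I and II came from 100 ng/ml stocks in pH 7.4 phosphate with ovalbumin.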

arginase II (ARG II) = target: T2, arginase II (ARG II) (Homo sapiens, UniProt P78540); assay: Inhibition of arginase II, spectrophotometric urea assay at 530 nm; type: biochemical
T2 sequence (P78540 23-354): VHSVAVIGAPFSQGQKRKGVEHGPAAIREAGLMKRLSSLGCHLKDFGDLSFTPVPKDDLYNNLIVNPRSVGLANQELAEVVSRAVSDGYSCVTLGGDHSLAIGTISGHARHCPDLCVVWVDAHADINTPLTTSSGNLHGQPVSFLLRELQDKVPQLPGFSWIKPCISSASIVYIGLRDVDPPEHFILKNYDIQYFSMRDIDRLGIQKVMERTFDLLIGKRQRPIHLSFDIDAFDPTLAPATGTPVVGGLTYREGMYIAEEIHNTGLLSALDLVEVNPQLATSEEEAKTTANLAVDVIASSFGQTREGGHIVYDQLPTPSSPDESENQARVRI
Outline: as §1

[1] = Formula I compounds, Table 2, read-out: Potency (ARG II)
[2] = Formula II compounds, Table 2-A
[3] = Formula II compounds, Table 2-A, read-out: Potency (ARG)

Row | IC50 (human arginase I (ARG I); Formula I compounds, Table 2) | IC50 (arginase II (ARG II); [1]) | IC50 (human arginase I (ARG I); [2]) | IC50 (arginase II (ARG II); [3]) | SMILES
1 | 2000 to 5000 nM | > 5000 nM | – | – | NC(CCCCB(O)O)(CC1CNC1)C(=O)O (stereo not shown) [compound 123, 2-amino-2-(azetidin-3-ylmethyl)-6-boronohexanoic acid dihydrochloride]
2 | 2000 to 5000 nM | 2000 to 5000 nM | – | – | NC(CCCCB(O)O)(CCc1ccccn1)C(=O)O (stereo not shown) [compound 116, 2-amino-6-borono-2-(2-(pyridin-2-yl)ethyl)hexanoic acid dihydrochloride]
3 | > 5000 nM | > 5000 nM | – | – | NC(CCCCB(O)O)(CCN1CCC[C@@H]1C(F)(F)F)C(=O)O (stereo partly drawn) [compound 46, 2-amino-6-borono-2-(2-((R)-2-(trifluoromethyl)pyrrolidin-1-yl)ethyl)hexanoic acid dihydrochloride]
4 | 0.1 to 250 nM | 251 to 1000 nM | – | – | NC(CCCCB(O)O)(CCNCc1ccccc1)C(=O)O (stereo not shown) [compound 70, 2-amino-2-(2-(benzylamino)ethyl)-6-boronohexanoic acid dihydrochloride]
5 | 251 to 1000 nM | 251 to 1000 nM | – | – | NC(CCCCB(O)O)(CCN1CCC(CO)CC1)C(=O)O (stereo not shown) [compound 22, 2-amino-6-borono-2-(2-(4-(hydroxymethyl)piperidin-1-yl)ethyl)hexanoic acid]
6 | 0.1 to 250 nM | 251 to 1000 nM | – | – | N[C@](CCCCB(O)O)(CCN1CCC[C@H]1CO)C(=O)O [compound 10, (R)-2-amino-6-borono-2-(2-((S)-2-(hydroxymethyl)pyrrolidin-1-yl)ethyl)hexanoic acid]
7 | 2000 to 5000 nM | > 5000 nM | – | – | NC(CCCCB(O)O)(CN1CCCCC1)C(=O)O (stereo not shown) [compound 79, 2-amino-6-borono-2-(piperidin-1-ylmethyl)hexanoic acid]

Second part, the molecule before the results:

Row | SMILES | IC50 (human arginase I (ARG I); Formula I compounds, Table 2) | IC50 (arginase II (ARG II); [1]) | IC50 (human arginase I (ARG I); [2]) | IC50 (arginase II (ARG II); [3])
8 | CC(C)CCN1Cc2ccccc2CC1CCC(N)(CCCCB(O)O)C(=O)O (stereo not shown) [compound 133, 2-amino-6-borono-2-(2-(2-isopentyl-1,2,3,4-tetrahydroisoquinolin-3-yl)ethyl)hexanoic acid dihydrochloride] | 0.1 to 250 nM | 0.1 to 250 nM | – | –
9 | NC(CCCCB(O)O)(C(=O)O)C1CCN(C(=O)c2ccccc2)CC1 (stereo not shown) [30-A, 2-amino-6-borono-2-[1-benzoylpiperidin-4-yl]hexanoic acid hydrochloride] | – | – | 2000 to 5000 nM | 2000 to 5000 nM
10 | CN(CCC(N)(CCCCB(O)O)C(=O)O)Cc1ccc(F)c(C(F)(F)F)c1 (stereo not shown) [compound 48, 2-amino-6-borono-2-(2-((4-fluoro-3-(trifluoromethyl)benzyl)(methyl)amino)ethyl)hexanoic acid dihydrochloride] | 2000 to 5000 nM | > 5000 nM | – | –
11 | NC(CCCCB(O)O)(C(=O)O)C1CCN(C(=O)NCc2ccc(Cl)cc2)CC1 (stereo not shown) [31-A, 2-amino-6-borono-2-{1-[(4-chlorobenzyl)carbamoyl]-piperidin-4-yl}hexanoic acid hydrochloride] | – | – | 1000 to 2000 nM | 2000 to 5000 nM
12 | NC(CCCCB(O)O)(C(=O)O)C1CCN(Cc2ccccc2-c2cccnc2)CC1 (stereo not shown) [Example 57-A, 2-amino-6-borono-2-(1-(2-(pyridin-3-yl)benzyl)piperidin-4-yl)hexanoic acid dihydrochloride] | – | – | 0.1 to 250 nM | 251 to 1000 nM
13 | NC(CCCCB(O)O)(C(=O)O)C1CCN(Cc2ccc(Cl)cc2)CC1 (stereo not shown) [Example 89-A, 2-amino-6-borono-2-(1-(4-chlorobenzyl)piperidin-4-yl)hexanoic acid dihydrochloride] | – | – | 0.1 to 250 nM | 0.1 to 250 nM
14 | CC1(C)CCC(N2CCC(C(N)(CCCCB(O)O)C(=O)O)CC2)CC1 (stereo not shown) [25-A, 2-amino-6-borono-2-[1-(4,4-dimethylcyclohexyl)piperidin-4-yl]hexanoic acid dihydrochloride] | – | – | 0.1 to 250 nM | 251 to 1000 nM
15 | NC(CCCCB(O)O)(CNC(c1ccccc1)C(O)c1ccccc1)C(=O)O (stereo in doubt) [compound 89, 2-amino-6-borono-2-(((1R,2S)-2-hydroxy-1,2-diphenylethylamino)methyl)hexanoic acid dihydrochloride] | > 5000 nM | > 5000 nM | – | –
16 | NC(CCCCB(O)O)(C(=O)O)C1CCN(Cc2csc3ccccc23)CC1 (stereo not shown) [Example 104-A, 2-amino-2-(1-(benzo[b]thiophen-3-ylmethyl)piperidin-4-yl)-6-boronohexanoic acid dihydrochloride] | – | – | 0.1 to 250 nM | 0.1 to 250 nM
17 | NC(CCCCB(O)O)(CCOc1cccc(C(F)(F)F)c1)C(=O)O (stereo not shown) [compound 95, 2-Amino-6-borono-2-[2-(3-trifluoromethylphenoxy)-ethyl]-hexanoic acid hydrochloride] | 2000 to 5000 nM | 2000 to 5000 nM | – | –
